Where a name gives a salt, the structure may show the parent alone.
Assays:
vertigo = assay: Vertigo in clinical tests; assay type: in vivo, man
adrenergic receptors = assay: α-blocking action: reversal of the hypertensive effect of adrenalin; assay type: in vivo, dogs
Solubility in water = assay type: physicochemical
femoral artery = assay: Vasodilating properties: injection into the femoral artery in dogs; assay type: in vivo; settings: injected locally into the femoral or vertebral artery
Experimental: On injection into the femoral artery, no effect is observed at doses of less than 100 μg/kg. […] At these doses, no effect is observed on the arterial pressure AP measured in accordance with the usual conditions.
When administered intra-arterially, the product of Example 6 is injected directly into the femoral artery. The flow rate is increased by 200% from a dose of 10 μg.

vertebral artery = assay: Vasodilating properties: injection into the vertebral artery in dogs; assay type: in vivo; settings: injected locally into the femoral or vertebral artery
Experimental: On injection into the vertebral artery, no effect is observed at doses of less than 1 mg/kg. At a dose of 10 mg/kg, the flow rate increases by 37% and at a dose of 20 mg/kg it only increases by 27%. At these two doses, the arterial pressure decreases respectively by 14 and 28% although no effect had been observed during the injection into the femoral artery.

[1] = Acute toxicity, intravenous, in mice; settings: mouse, in vivo
intestinal barrier = assay: Intraduodenal administration in dogs: cardiovascular effects and passage through the intestinal barrier; assay type: in vivo; settings: intraduodenally
Experimental: (§1) In the case of intravenous administration, the tests were carried out on 4 anaesthetised dogs. The product is perfused intravenously over the course of 5 minutes at doses of 2.5, 5 and 10 mg/kg and, in one test, is administered intraduodenally at a dose of 10 mg/kg.

[2] = Analgesic activity, subcutaneous; assay type: in vivo; settings: injected subcutaneously
[3] = tested on: vertebral, femoral and mesenteric artery flow rates; assay: Vasodilating and cardiovascular properties on intravenous administration in dogs
Experimental: During the series of pharmacological tests, the following parameters were used:
Arterial pressure (abbreviated to AP): this parameter, expressed in mm Hg) is evaluated in accordance with the usual conditions.
Arterial resistance: this parameter (expressed in dynes/sec./cm^-^5) is calculated according to the ratio [formula] Cardiac index: this parameter is expressed in (ml/min.)/kg. Systolic index: this parameter is equal to the ratio cardiac index/frequency.
Cardiac work: this parameter (expressed in kgm/min.) is calculated according to the relationship: Cardiac work = average AP (mm Hg) × 1.36 = cardiac output (1/min.) × 10^-^3.
Ratio dp/dt: this parameter corresponds to the variation in pressure expressed in mm Hg per second (in English: Rate of rise of left ventricular pressure).
The technique used to measure the ratio dp/dt is as follows:
The cardiac output is determined in Beagle dogs weighing 10 to 15 kg, anesthetised with pentobarbital, by injecting Carbiogreen (1 mg in 0.5 ml) into the right ventricle. A catheter introduced via the carotid artery into the aorta makes it possible to aspirate arterial blood at the rate of 25 ml/min. and to pass it in front of the photoelectric cell of a Beckman cardiodensitometer. The results are interpreted in accordance with the Hamilton method.
as §1

digestive ulcers = settings: TOLDY et al. 1966; cited from earlier work

Question: With `OCCN1CCN(CC2COc3ccccc3O2)CC1` (stereo not shown) [Example 1, 1-[2-(1,4-Benzodioxanyl)-methyl]-4-(2-hydroxyethyl)-piperazine dihydrochloride] as the compound, how does the vertigo (vertigo) read?
Answer: caused vertigo in the majority of cases

Question: And the α-blocking activity (adrenergic receptors; administered parenterally)?
Answer: α-blocking

Question: What about the solubility in water (Solubility in water) of the same compound?
Answer: soluble in water

Question: For `CC(C)(C)c1ccc2c(c1)OCC(CN1CCN(CCO)CC1)O2` (stereo not shown) [Example 5, 1-[2-(6- or 7-{tertiarybutyl}-1,4-benzodioxanyl)-methyl]-4-(2-hydroxyethyl)-piperazine dihydrochloride], which “femoral flow rate, local injection” value (femoral artery) is on record?
Answer: increases both these flow rates in proportion to the doses, but with a preference for the femoral flow rate

Question: And the “vertebral flow rate, local injection” value (vertebral artery)?
Answer: increases both these flow rates in proportion to the doses, but with a preference for the femoral flow rate

Question: And the LD50 ([1]; read-out: LD-50 I.V. in mice)?
Answer: 140 ± 8 mg/kg

Question: What about the NOAEL ([1]; read-out: Maximum non-toxic dose) of the same compound?
Answer: 100 mg/kg

Question: And the minimal effective dose (intestinal barrier; Canis lupus familiaris, intraduodenal, read-out: dose from which the pulse rate decreases)?
Answer: 7 mg/kg

Question: And the vasodilating effect (intestinal barrier; successively 3.5, 7, 15 and 35 mg/kg)?
Answer: no vasodilating effect

Question: And the analgesic activity [2]?
Answer: analgesic activity of the morphine type

Question: And the “dose dependence of femoral vasodilating action” value ([3]; 2 dogs, i.v.)?
Answer: not proportional to the dose

Question: What about the “dose from which femoral vasodilating action is maximum” value ([3]; 2 dogs, i.v.) of the same compound?
Answer: 3.5 mg/kg

Question: What about the vertebral dilating action ([3]; 2 dogs, i.v.) of the same compound?
Answer: no vertebral dilating action

Question: What about the bradycardia ([3]; 2 dogs, i.v., 15 mg/kg (last dose)) of the same compound?
Answer: a bradycardia

Question: What about the “femoral vasodilating action, maximum” value ([3]; 2 dogs, i.v., from 3.5 mg/kg, increase (+)) of the same compound?
Answer: 60%

Question: What about the “effect on the AP” value ([3]; 2 dogs, i.v., up to 15 mg/kg) of the same compound?
Answer: no effect on the AP

Question: And the vasodilating effect ([3]; summary)?
Answer: exclusively peripheral and very moderate vasodilating effect

Question: Which results are given for `OCCN1CCN(CC2COc3ccccc3O2)CC1` (stereo not shown) [free base, 1-[2-(1,4-benzodioxanyl)-methyl]-4-(2-hydroxyethyl)-piperazine, reference compound]?
Answer: activity in the treatment of digestive ulcers (digestive ulcers): devoid of such activity; α-blocking activity (counteracting the hypertensive effects of adrenalin) (adrenergic receptors; orally to dogs): does not show any α-blocking activity

From patent US3944549A, “Amino derivatives of 1,4-benzodioxan” (priority 1972, dated 1976)
